From patent publication US4272540A, “14-Methoxymorphinan-6-one compounds and therapeutic methods of treating pain and drug dependence with them” (SISA, Incorporated, priority 1979, dated 1981)
Structures can show the parent of a compound that is named as a salt. Where two headings read alike, the source gives them in different places.

Key:
mice = assay: Test A: acetic acid mouse writhing test (analgesic effects); format: in vivo, male CD-1 mice; conditions: for ED50: Mus musculus, sc
Experimental: (A) Analgesic effects upon mice (acetic acid writhing test).
(§1) The analgesic effects of test compounds were determined in mice by use of the acetic acid writhing test described by B. J. R. Whittle, Brit. J. Pharmacol., 22:296 (1964). In this test at least three groups of five male CD-1 mice each were given subcutaneous doses of the test drug dissolved in either distilled water or distilled water acidified with HCl depending on the solubility of the compound. In all cases, 0.4 milliliter of a 0.5% V/V acetic acid in distilled water solution was administered intraperitoneally 15 minutes post drug. The number of writhes in a 20 minute interval beginning 5 minutes after the acetic acid injection were determined and compared with the number of writes in control groups which had received only acetic acid.
Percent inhibition of writhing was calculated as: [formula]
(§2) The ED50 dose, i.e., the dose required to reduce the number of writhes by 50%, was determined graphically from a plot of % inhibition as a probit versus log dose. Confidence limits of 95% were calculated on the basis of those results falling in the range 16-84% inhibition. See Litchfield, J. T. and Wilcoxon, F., J. Pharmacol. Exp. Ther., 96, 99-113, (1949).
(§3) The results of these experiments are set out in Table I where R, R1 and R2 refer to the proceeding general formula for the compounds of the present invention. In the column under R2 CBM stands for cyclobutylmethyl, CPM for cyclopropylmethyl, THF for tetrahydrofurfuryl and DMA for dimethylallyl.

rats = assay: Test B: narcotic antagonist activity (modified rat tail flick test, morphine antagonism); format: in vivo, male albino Wistar rats; set-up: key to AD50 (Test B): inactive at dose stated: IA is intended to mean "inactive"; conditions: for ED50: Rattus norvegicus; for AD50 (Test B): inactive at dose stated: at 10 mg/kg, interperitoneally
Experimental: (B) Narcotic antagonist activity in rats (modified rat tail flick test).
The narcotic antagonist effects of test compounds were determined by a modification of the rat tail flick procedure of Harris and Pierson (J. Pharmacol. Exp. Ther. 143:141[1964]).
(§4) Male albino Wistar rats (100-120 g) were used for this study. A rat's tail is so placed so as to cover a photocell. Heat is applied by a lamp in a reflector with a timer being connected to the lamp and photocell so that the timer goes on when the light is turned on and is turned off when the photocell is uncovered. A rheostat, incorporated into a heating lamp is used to adjust the intensity of the light falling on the tail of the rat such that the rat's control reaction time is from two to four seconds. Animals with a control reaction time outside this range are rejected. The rheostat adjustment is made only if a significant proportion (more than 2 out of every 10 rats) of the reaction times are outside the range of two to four seconds. Groups of five rats were used each time, and two control times were determined at 60 and 30 minutes prior to subcutaneous injection of the drug.
(§5) Thirty minutes after the last control run the test drug was given interperitoneally. This was followed ten minutes later by an ED80 dose of morphine subcutaneously. The animals were retested at 20 minutes after the morphine injection. Control animals were given vehicle and morphine only. The data were calculated as follows: [formula]
(§6) The data were plotted on log-probit paper and AD50 values, i.e., the dose required to inhibit the morphine effect by 50% within 95% condidence limits, were determined by the method of Litchfield and Wilcoxon.
as §3

[1] = Overall agonist/antagonist classification from Table I (Tests A and B); format: in vivo, mice (Test A); rats (Test B); conditions: from ED50 and AD50 values of Table I
Experimental: as §1, §2, §4, §5, §6

[2] = prior art report; cited from earlier work
[3] = sc, rats, tail flick, drug interperitoneally 10 min before ED80 morphine s.c., dose inhibiting morphine effect by 50%, read-out: AD50 (Test B, narcotic antagonist activity)
[4] = subcutaneous, 15 min before acetic acid, dose reducing writhes by 50%, read-out: ED50 (Test A, acetic acid mouse writhing test)
[5] = rats, tail flick, drug interperitoneally 10 min before ED80 morphine s.c., dose inhibiting morphine effect by 50%

Row | SMILES | ED50 (rats; [3]) | agonist/antagonist profile [1] | ED50 (mice; [4]) | AD50 (Test B): inactive at dose stated (rats; rats, tail flick vs morphine) | other results
1 | COc1ccc2c(c1)[C@]13CCN(CC4CC4)[C@H](C2)[C@]1(OC)[C@@H](C)CC(=O)C3.Cl [TR-5209, 17-Cyclopropylmethyl-3,14-dimethoxy-8β-methylmorphinan-6-one Hydrochloride] | 0.45 mg/kg | pure narcotic antagonists | – | – | ED50 (Test A): inactive at dose stated (mice; at 13 mg/kg, subcutaneous): IA (IA is intended to mean "inactive")
2 | CO[C@@]12[C@@H](C)CC(=O)C[C@@]13CCN(CC1CC1)[C@@H]2Cc1ccc(O)cc13.Cl [TR-5210, 17-Cyclopropylmethyl-3-hydroxy-14-methoxy-8β-methylmorphinan-6-one Hydrochloride] | 0.004 mg/kg | – | 30 mg/kg | – | ED50 (rats; rats, tail flick vs morphine, unit inferred, read-out: AD50 (the source's name)): 0.004 mg/kg; potency as narcotic antagonist relative to naloxone (rats; naloxone as comparator): 10 times; agonist/antagonist profile ([1]; Hydrochloride): pure narcotic antagonist
3 | COc1ccc2c(c1)[C@]13CCN(CC4CCC4)[C@H](C2)[C@]1(OC)[C@@H](C)CC(=O)C3.Cl [TR-5211, 17-Cyclobutylmethyl-3,14-dimethoxy-8β-methylmorphinan-6-one Hydrochloride] | 0.41 mg/kg | pure narcotic antagonists | – | – | ED50 (Test A): inactive at dose stated (mice; at 10 mg/kg, subcutaneous): IA (IA is intended to mean "inactive")
4 | CO[C@@]12[C@@H](C)CC(=O)C[C@@]13CCN(CC1CCC1)[C@@H]2Cc1ccc(O)cc13 [TR-5212, 17-Cyclobutylmethyl-3-hydroxy-14-methoxy-8β-methylmorphinan-6-one Hydrochloride] | 0.18 mg/kg | pure narcotic antagonists | – | – | ED50 (Test A): inactive at dose stated (mice; at 10 mg/kg, subcutaneous): IA (IA is intended to mean "inactive")
5 | COc1ccc2c(c1)[C@]13CCN(CC4CCC4)[C@H](C2)[C@]1(OC)[C@H](C)CC(=O)C3.Cl [TR-5219, 17-Cyclobutylmethyl-3,14-dimethoxy-8α-methylmorphinan-6-one Hydrochloride] | – | – | 15.1 mg/kg | IA | ED50 (mice; writhing, unit inferred, read-out: ED50 value): 15.1 mg/kg; analgesic activity (in words) (mice; writhing): only a weak analgesic; narcotic antagonist activity (in words) (rats; rats, tail flick vs morphine): not a narcotic antagonist
6 | CO[C@@]12[C@H](C)CC(=O)C[C@@]13CCN(CC1CCC1)[C@@H]2Cc1ccc(O)cc13 [TR-5249, 17-Cyclobutylmethyl-3-hydroxy-14-methoxy-8α-methylmorphinan-6-one] | 3 mg/kg | – | 0.14 mg/kg | – | –
7 | CO[C@@]12[C@@H](C)CC(O)C[C@@]13CCN(CC1CC1)[C@@H]2Cc1ccc(O)cc13 (stereo partly drawn) [TR-5250, 17-Cyclopropylmethyl-14-methoxy-8β-methylmorphinan-3,6-diol Hydrochloride] | 0.32 mg/kg | – | – | – | ED50 (Test A): inactive at dose stated (mice; at 10 mg/kg, subcutaneous): IA (IA is intended to mean "inactive"); less active as narcotic antagonist than TR-5210 (rats; rats, tail flick vs morphine, compared with TR-5210): ~2 orders of magnitude
8 | CO[C@@]12[C@H](C)CC(=O)C[C@@]13CCN(CC1CC1)[C@@H]2Cc1ccc(O)cc13.Cl [TR-5284, 17-Cyclopropylmethyl-3-hydroxy-14-methoxy 8α-methylmorphinan-6-one Hydrochloride] | < 3 mg/kg | pure narcotic antagonists | – | – | ED50 (Test A): inactive at dose stated (mice; at 10 mg/kg, subcutaneous): IA (IA is intended to mean "inactive"); narcotic antagonist activity (in words) (rats; rats, tail flick vs morphine): is a narcotic antagonist
9 | CO[C@@]12[C@H](C)CC(O)C[C@@]13CCN(CC1CC1)[C@@H]2Cc1ccc(O)cc13.Cl (stereo partly drawn) [TR-5285, 17-Cyclopropylmethyl-14-methoxy-8α-methylmorphinan-3,6-diol Hydrochloride] | > 10 mg/kg | not active as an analgesic or a narcotic antagonist | > 10 mg/kg | – | –
10 | COc1ccc2c(c1)[C@]13CCN(CC4CCC4)[C@H](C2)[C@]1(OC)CCC(=O)C3 [TR-5296, 17-Cyclobutylmethyl-3,14-dimethoxymorphinan-6-one Hydrochloride] | – | pure analgesics | 0.77 mg/kg | 1A | –
11 | COc1ccc2c(c1)[C@]13CCN(CC4CC4)[C@H](C2)[C@]1(OC)CCC(=O)C3 [TR-5305, 17-Cyclopropylmethyl-3,14-dimethoxymorphinan-6-one] | – | mixed analgesic (agonist) and narcotic antagonist activity | 0.98 mg/kg | – | AD50 (Test B, narcotic antagonist activity) (rats; [5]): 1.60 mg/kg
12 | CO[C@@]12CCC(=O)C[C@@]13CCN(CC1CCC1)[C@@H]2Cc1ccc(O)cc13 [TR-5306, 17-Cyclobutylmethyl-3-hydroxy-14-methoxymorphinan-6-one Hydrochloride] | – | pure analgesics | 0.007 mg/kg | IA | –
13 | CO[C@@]12[C@H](C)CC(=O)C[C@@]13CCN(CC=C(C)C)[C@@H]2Cc1ccc(O)cc13.Cl [TR-5310, 17-Dimethylallyl-3-hydroxy-14-methoxy-8α-methylmorphinan-6-one Hydrochloride] | – | pure analgesics | 0.18 mg/kg | IA | –
14 | CO[C@@]12CCC(=O)C[C@@]13CCN(CC1CC1)[C@@H]2Cc1ccc(O)cc13.Cl [TR-5325, 17-Cyclopropylmethyl-3-hydroxy-14-methoxymorphinan-6-one Hydrochloride] | 0.35 mg/kg | – | 0.45 mg/kg | – | agonist/antagonist profile ([1]; Hydrochloride): mixed analgesic (agonist) and narcotic antagonist activity
15 | COc1ccc2c(c1)[C@]13CCN(CC4CCCO4)[C@H](C2)[C@]1(OC)CCC(=O)C3.Cl (stereo partly shown) [TR-5326, 3,14-Dimethoxy-17-tetrahydrofurfurylmorphinan-6-one Hydrochloride] | – | pure analgesics | 0.16 mg/kg | IA | –
16 | COc1ccc2c(c1)[C@]13CCN(CC4CCCO4)[C@H](C2)[C@]1(OC)[C@H](C)CC(=O)C3.Cl (stereo partly drawn) [TR-5327, 17-Tetrahydrofurfuryl-3,14-dimethoxy-8α-methylmorphinan-6-one Hydrochloride] | – | pure analgesics | 1.85 mg/kg | IA | –
17 | CO[C@@]12CCC(=O)C[C@@]13CCN(CC1CCCO1)[C@@H]2Cc1ccc(O)cc13 (stereo partly shown) [TR-5340, 3-Hydroxy-14-methoxy-17-tetrahydrofurfurylmorphinan-6-one] | – | pure analgesics | 0.03 mg/kg | IA | –
18 | COc1ccc2c(c1)[C@]13CCN(CC4CC4)[C@H](C2)[C@]1(OC)CCC(=O)C3 [TR-5400, 17-Cyclopropylmethyl-3,14-dimethoxymorphinan-6-one] | – | – | – | – | ED50 (Test A, acetic acid mouse writhing test) (mice; subcutaneous, 15 min before acetic acid, dose reducing writhes by 50%): 0.89 mg/kg; AD50 (Test B, narcotic antagonist activity) (rats; [5]): 0.64 mg/kg
19 | C[C@H]1[C@H]2Cc3ccc(O)cc3[C@]1(C)CCN2CC1CC1 [cyclazocine] | – | – | – | – | analgesic / narcotic antagonist activity (literature) [2]: mixed analgesic/narcotic antagonist activity
